# Data from DBAASP.
# Key:
# Experiment in all cases: ≥ marks a high value that may be exact or a test limit, other limits are often not marked, values filed in µg/mL are converted to µM
# Acinetobacter baumannii = system: Acinetobacter baumannii
# [1] = system: Staphylococcus aureus ATCC 25923
# [2] = system: Escherichia coli KpC+001812446
# [3] = system: Klebsiella pneumoniae KpC+001825971
# Staphylococcus aureus MR = system: Staphylococcus aureus MR
# [4] = system: Pseudomonas aeruginosa PAO1
# Enterobacter cloacae = system: Enterobacter cloacae
# [5] = system: Klebsiella pneumoniae ATCC 13883
# [6] = system: Escherichia coli ATCC 25922
# Escherichia coli BL21 = system: Escherichia coli BL21
# [7] = system: Staphylococcus aureus ATCC 12600
# [8] = system: Pseudomonas aeruginosa PA14
# [9] = system: Staphylococcus aureus JE2
# Escherichia coli K-12 = system: Escherichia coli K-12
# Escherichia coli JW0013 = system: Escherichia coli JW0013
# Escherichia coli BW25113 = system: Escherichia coli BW25113
# Escherichia coli J2210 = system: Escherichia coli J2210
# [10] = system: Escherichia coli JW0368 ΔsbmA
# Escherichia coli JJ2489 = system: Escherichia coli JJ2489
# [11] = system: Escherichia coli JW2778 ΔygdD
# [12] = system: Salmonella typhimurium SL1344
# [13] = system: Salmonella enterica subsp. enterica serovar Enteritidis MH91989
# Escherichia coli MC1041 = system: Escherichia coli MC1041
# Bibersteinia trehalosi = system: Bibersteinia trehalosi
# [14] = system: Mannheimia haemolytica Serovar 6
# [15] = system: Corynebacterium pseudotuberculosis ATCC 19410
# Pasteurella multocida = system: Pasteurella multocida
# [16] = system: Mannheimia haemolytica Serovar 1
# Staphylococcus aureus = system: Staphylococcus aureus
# Klebsiella pneumoniae = system: Klebsiella pneumoniae
# [17] = system: Salmonella enterica subsp. arizonae
# [18] = system: Streptococcus pyogenes DMST 17020
# [19] = system: Staphylococcus epidermidis ATCC 12228
# [20] = system: Staphylococcus aureus ATCC 29213
# [21] = system: Candida parapsilosis CGMCC 2.3989
# [22] = system: Lactiplantibacillus plantarum 8014
# [23] = system: Lacticaseibacillus rhamnosus 7469
# [24] = system: Candida albicans CGMCC 2.2086
# [25] = system: Candida tropicalis CGMCC 2.1975
smiles,measurement,setting,value
CC[C@H](C)[C@H](NC(=O)[C@H](CCCCN)NC(=O)[C@H](CCCCN)NC(=O)[C@@H](NC(=O)[C@H](CCCCN)NC(=O)[C@H](C)NC(=O)[C@H](C)NC(=O)[C@H](CC(C)C)NC(=O)[C@H](CCCN=C(N)N)NC(=O)[C@H](CCCCN)NC(=O)[C@H](CC(C)C)NC(=O)[C@@H](NC(=O)[C@@H](N)CCCCN)[C@@H](C)CC)[C@@H](C)CC)C(=O)N[C@@H](CC(C)C)C(N)=O [KILKRLAAKIKKIL],MIC,Acinetobacter baumannii,≥ 32 µM
same,MIC,[1],> 32 µM
same,MIC,[2],8 µM
same,MIC,[3],≥ 32 µM
same,MIC,Staphylococcus aureus MR,≥ 32 µM
same,MIC,[4],4 µM
same,MIC,Enterobacter cloacae,≥ 32 µM
same,MIC,[5],8 µM
same,MIC,[6],4 µM
same,MIC,Escherichia coli BL21,2 µM
same,MIC,[7],4 µM
same,MIC,[8],4 µM
CC[C@H](C)[C@H](NC(=O)[C@@H](NC(=O)[C@H](CO)NC(=O)[C@H](C)NC(=O)[C@@H](NC(=O)[C@H](CCCCN)NC(=O)[C@H](CCCCN)NC(=O)[C@@H](NC(=O)[C@@H](NC(=O)[C@H](CC(=O)O)NC(=O)[C@H](Cc1ccccc1)NC(=O)[C@H](CC(C)C)NC(=O)CNC(C)=O)C(C)C)[C@@H](C)CC)C(C)C)C(C)C)C(=O)NCC(=O)NCC(=O)N[C@@H](CC(C)C)C(=O)O [GLFDVIKKVASVIGGL],MIC,[9],≥ 158 µM
same,MIC,Escherichia coli K-12,≥ 158 µM
CC[C@H](C)[C@H](NC(=O)[C@H](CCCN=C(N)N)NC(=O)[C@@H](N)CCCN=C(N)N)C(=O)N[C@@H](CCCN=C(N)N)C(=O)N[C@@H](CCCCN)C(=O)N[C@@H](CCCN=C(N)N)C(=O)N1CCC[C@H]1C(=O)N1CCC[C@H]1C(=O)N[C@@H](CCCN=C(N)N)C(=O)N[C@@H](CC(C)C)C(=O)N1CCC[C@H]1C(=O)N[C@@H](CCCN=C(N)N)C(=O)N1CCC[C@H]1C(=O)N[C@@H](CCCN=C(N)N)C(=O)N1CCC[C@H]1C(=O)N[C@@H](CCCCN)C(=O)O [RRIRKRPPRLPRPRPK],MIC,Escherichia coli JW0013,0.06 µM
same,MIC,Escherichia coli BW25113,0.078 µM
same,MIC,Escherichia coli J2210,0.157 µM
same,MIC,[10],0.06 µM
same,MIC,Escherichia coli JJ2489,0.12 µM
same,MIC,[11],0.12 µM
same,MIC,[12],0.12 µM
same,MIC,[13],0.12 µM
same,MIC,Escherichia coli MC1041,0.06 µM
CC[C@H](C)[C@H](NC(=O)[C@H](CCCN=C(N)N)NC(=O)[C@@H](NC(=O)[C@@H](NC(=O)[C@H](CCCN=C(N)N)NC(=O)[C@H](CC(C)C)NC(=O)[C@@H](NC(=O)[C@@H](NC(=O)[C@@H]1CCCN1C(=O)CNC(=O)[C@H](Cc1ccc(O)cc1)NC(=O)[C@H](CCCCN)NC(=O)[C@H](CCCCN)NC(=O)[C@@H](NC(=O)[C@@H](NC(=O)[C@H](Cc1cnc[nH]1)NC(=O)[C@@H](NC(=O)[C@@H](NC(=O)[C@H](CCCCN)NC(=O)[C@H](CCCN=C(N)N)NC(=O)[C@@H](NC(=O)[C@@H](NC(=O)[C@H](CCCN=C(N)N)NC(=O)[C@H](CCCN=C(N)N)NC(=O)[C@H](CC(C)C)NC(=O)[C@H](CC(N)=O)NC(=O)[C@@H](N)CCCCN)[C@@H](C)CC)[C@@H](C)CC)[C@@H](C)CC)[C@@H](C)CC)[C@@H](C)CC)[C@@H](C)CC)[C@@H](C)O)[C@@H](C)CC)[C@@H](C)CC)[C@@H](C)CC)C(=O)N[C@H](C(=O)NCC(N)=O)[C@@H](C)CC [KNLRRIIRKIIHIIKKYGPTILRIIRIIG],MIC,Bibersteinia trehalosi,2.85 µM
same,MIC,[14],0.598 µM
same,MIC,[15],5.7 µM
same,MIC,[4],1.2 µM
same,MIC,Pasteurella multocida,2.37 µM
same,MIC,[16],1.08 µM
same,MIC,Staphylococcus aureus,1.42 µM
same,MIC,Klebsiella pneumoniae,0.37 µM
same,MIC,[17],1.91 µM
CSCC[C@H](NC(=O)[C@H](CS)NC(=O)[C@H](CC(C)C)NC(=O)[C@@H](NC(=O)[C@@H](N)Cc1cnc[nH]1)[C@@H](C)O)C(=O)NCC(=O)N[C@@H](CCCCN)C(=O)N[C@@H](C)C(=O)N[C@H](C(=O)N[C@@H](Cc1ccc(O)cc1)C(=O)O)[C@@H](C)O [HTLCMGKATY],MIC,[18],≥ 250 µM
same,MIC,[19],250 µM
CC[C@H](C)[C@H](N)C(=O)N[C@@H](Cc1cnc[nH]1)C(=O)N[C@@H](Cc1cnc[nH]1)C(=O)N[C@H](C(=O)N[C@@H](Cc1cnc[nH]1)C(=O)N[C@@H](Cc1cnc[nH]1)C(=O)N[C@@H](Cc1cnc[nH]1)C(=O)N[C@H](C(=O)N[C@@H](Cc1cnc[nH]1)C(=O)N[C@@H](Cc1cnc[nH]1)C(=O)N[C@H](C(=O)N[C@@H](Cc1cnc[nH]1)C(=O)N[C@@H](Cc1cnc[nH]1)C(=O)N[C@@H](Cc1cnc[nH]1)C(=O)N[C@H](C(=O)N[C@@H](Cc1cnc[nH]1)C(=O)N[C@@H](Cc1cnc[nH]1)C(=O)N[C@H](C(=O)N[C@@H](Cc1cnc[nH]1)C(=O)N[C@@H](Cc1cnc[nH]1)C(=O)N[C@@H](Cc1cnc[nH]1)C(N)=O)[C@@H](C)CC)[C@@H](C)CC)[C@@H](C)CC)[C@@H](C)CC)[C@@H](C)CC [IHHIHHHIHHIHHHIHHIHHH],MIC,[1],> 64 µM
same,MIC,[19],> 64 µM
same,MIC,[20],> 64 µM
same,MIC,[21],1 µM
same,MIC,[22],≥ 64 µM
same,MIC,[23],≥ 64 µM
same,MIC,[24],1 µM
same,MIC,[25],0.5 µM
CSCC[C@H](NC(=O)[C@H](CS)NC(=O)[C@H](CC(C)C)NC(=O)[C@@H](NC(=O)[C@@H](N)Cc1cnc[nH]1)[C@@H](C)O)C(=O)N[C@@H](CC(=O)O)C(=O)NCC(=O)NCC(=O)N[C@@H](C)C(=O)N[C@H](C(=O)N[C@@H](Cc1ccc(O)cc1)C(=O)O)[C@@H](C)O [HTLCMDGGATY],MIC,[18],≥ 50 µM
